Earlier results in patent US12336993B2, “Therapeutic benefit of suboptimally administered chemical compounds” (priority 2013, dated 2025).

Tests used:
[1] = target: glycogen synthase kinase-33 (GSK-30) (Homo sapiens, UniProt P49841)
non-Hodgkin's lymphoma = conditions: literature report (Kennedy et al. 1999)
DNA = conditions: guanine-N7 alkylation of DNA
Hodgkin's lymphoma = conditions: literature reports (Gold et al. 1970; Kennedy et al. 1999)
[2] = tested on: chronic lymphocytic leukemia; conditions: literature reports (Kennedy & Theologides 1961; Kennedy et al. 1999)

Sequence of glycogen synthase kinase-33 (GSK-30) (P49841 whole entry): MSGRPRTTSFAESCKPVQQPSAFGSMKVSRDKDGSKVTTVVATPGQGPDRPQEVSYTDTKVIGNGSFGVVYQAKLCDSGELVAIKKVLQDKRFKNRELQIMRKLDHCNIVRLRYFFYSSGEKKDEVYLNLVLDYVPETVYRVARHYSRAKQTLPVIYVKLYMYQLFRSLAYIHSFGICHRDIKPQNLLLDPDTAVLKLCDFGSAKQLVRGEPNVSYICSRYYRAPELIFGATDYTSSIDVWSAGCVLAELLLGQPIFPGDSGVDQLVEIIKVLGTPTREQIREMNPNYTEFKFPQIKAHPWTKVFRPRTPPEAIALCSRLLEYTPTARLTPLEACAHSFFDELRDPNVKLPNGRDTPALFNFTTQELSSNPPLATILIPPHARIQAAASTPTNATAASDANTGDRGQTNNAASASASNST

concentration at which inhibition of GSK is promoted [1] [nM] | Compound | activity in non-Hodgkin's lymphoma (non-Hodgkin's lymphoma) | sequence preferences to alkylate (DNA) | activity in Hodgkin's lymphoma (Hodgkin's lymphoma) | activity in chronic lymphocytic leukemia [2]
5 to 50 | CN1C(=O)/C(=C2/C(=O)Nc3ccccc32)c2ccccc21 [meisoindigo] |  |  |  | 
 | O=c1[nH]cc(N(CCCl)CCCl)c(=O)[nH]1 [uracil mustard, 5-[bis(2-chloroethyl)amino]-1H-pyrimidine-2,4-dione] | active | 5′-YGC-3′ | active | active
